According to the supplement of paper PMC10307832:

Columns and labels:
Experiment in all cases: relative viability (nuclei count vs DMSO), 5 days (fraction); higher = more cells survive
[1] = compound: CC1=CC(=NN1)NC2=CC(=NC(=N2)/C=C/C3=CC=CC=C3)N4CCN(CC4)C + O=C(CCCCCCC(=O)Nc1ccccc1)NO [Vorinostat] (partner 1 µM)
How it was run: (§1)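 The day after seeding in 1536-well plates, lung cancer cell lines were treated by pin tool with a single drug, or with a fixed anchor-drug dose together with five library-drug doses (not always all listed) in √10 steps. After 5 days, a combined fix-and-stain solution (final 0.05% Triton X-100, 1% formaldehyde, 1 ug/ml Hoechst) was added. Nuclei counted on 4× images gave relative viability as treated counts over vehicle counts, reported as the median of duplicate plates.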

[2] = compound: CC(C)C[C@H](NC(=O)[C@H](Cc1ccccc1)NC(=O)c1cnccn1)B(O)O [Bortezomib] + Cc1nc(Nc2ncc(C(=O)Nc3c(C)cccc3Cl)s2)cc(N2CCN(CCO)CC2)n1 [Dasatinib] (partner 0.075 µM)
How it was run: as §1

[3] = compound: COC1=CC(c2cc3ccccc3[nH]2)=N/C1=C\c1[nH]c(C)cc1C [Obatoclax] + NC(=O)Nc1cc(-c2cccc(F)c2)sc1C(=O)N[C@H]1CCCNC1 [AZD7762] (partner 0.2 µM)
How it was run: as §1

[4] = compound: CC1=CC(=NN1)NC2=CC(=NC(=N2)/C=C/C3=CC=CC=C3)N4CCN(CC4)C + CC(C)C[C@H](NC(=O)[C@H](Cc1ccccc1)NC(=O)c1cnccn1)B(O)O [Bortezomib] (partner 0.002 µM)
How it was run: as §1

| Cell Line | relative viability ([1]; first compound 0.08 µM) | relative viability ([1]; first compound 0.253 µM) | relative viability ([1]; first compound 0.8 µM) | relative viability ([1]; first compound 2.53 µM) | relative viability ([1]; first compound 8 µM) | relative viability ([2]; first compound 0.0002 µM) | relative viability ([2]; first compound 0.000632 µM) | relative viability ([2]; first compound 0.002 µM) | relative viability ([2]; first compound 0.006325 µM) | relative viability ([2]; first compound 0.02 µM) | relative viability ([3]; first compound 0.01 µM) | relative viability ([3]; first compound 0.03162 µM) | relative viability ([3]; first compound 0.1 µM) | relative viability ([3]; first compound 0.3162 µM) | relative viability ([3]; first compound 1 µM) | relative viability ([4]; first compound 0.08 µM) | relative viability ([4]; first compound 0.253 µM) | relative viability ([4]; first compound 0.8 µM) | relative viability ([4]; first compound 2.53 µM) | relative viability ([4]; first compound 8 µM) |
| --- | --- | --- | --- | --- | --- | --- | --- | --- | --- | --- | --- | --- | --- | --- | --- | --- | --- | --- | --- | --- |
| NCI-H358 | 0.587 | 0.756 | 0.178 | 0.116 | 0.0712 | 0.162 | 0.153 | 0.164 | 0.084 | 0.073 | 0.519 | 0.438 | 0.543 | 0.307 | 0.224 | – | – | – | – | – |
| NCI-H520 | 0.7 | 0.678 | 0.415 | 0.184 | 0.14 | 0.173 | 0.207 | 0.18 | 0.201 | 0.179 | – | – | – | – | – | 0.487 | 0.599 | 0.395 | 0.154 | 0.11 |
| NCI-H522 | 0.894 | 0.93 | 1.12 | 0.854 | 0.426 | 0.875 | 0.79 | 0.965 | 0.4 | 0.393 | 0.823 | 0.664 | 0.915 | 0.92 | 0.883 | – | – | – | – | – |
| NCI-H661 | 0.784 | 0.854 | 0.562 | 0.348 | 0.311 | 0.851 | 0.836 | 0.773 | 0.331 | 0.168 | – | – | – | – | – | 0.741 | 0.906 | 0.839 | 0.669 | 0.203 |
| NCI-H1299 | – | – | – | – | – | – | – | – | – | – | – | – | – | – | – | 1 | 1.05 | 1 | 0.854 | 0.211 |
| NCI-H1395 | 0.702 | 0.669 | 0.675 | 0.375 | 0.236 | 0.428 | 0.41 | 0.427 | 0.352 | 0.306 | 0.396 | 0.395 | 0.393 | 0.375 | 0.348 | – | – | – | – | – |
| NCI-H1563 | – | – | – | – | – | 0.448 | 0.428 | 0.411 | 0.465 | 0.455 | – | – | – | – | – | 0.943 | 0.874 | 0.863 | 0.714 | 0.428 |
| NCI-H1623 | – | – | – | – | – | 0.537 | 0.572 | 0.565 | 0.52 | 0.262 | – | – | – | – | – | – | – | – | – | – |
| NCI-H1648 | 0.437 | 0.488 | 0.666 | 0.346 | 0.203 | – | – | – | – | – | 0.701 | 0.754 | 1 | 0.77 | 0.886 | – | – | – | – | – |
| NCI-H1650 | 0.523 | 0.733 | 0.553 | 0.14 | 0.0794 | 0.354 | 0.302 | 0.181 | 0.197 | 0.207 | – | – | – | – | – | 0.209 | 0.191 | 0.182 | 0.183 | 0.19 |
| NCI-H1703 | – | – | – | – | – | – | – | – | – | – | 0.135 | – | – | 0.138 | 0.126 | 0.261 | 0.319 | 0.236 | 0.174 | 0.117 |
| NCI-H1792 | – | – | – | – | – | 0.722 | 0.59 | 0.504 | 0.759 | 0.443 | 0.732 | 0.482 | 0.513 | 0.527 | 0.213 | 0.863 | 0.999 | 0.919 | 0.84 | 0.0942 |
| NCI-H1793 | 0.544 | 0.77 | 0.78 | 0.124 | 0.0909 | 0.35 | 0.324 | 0.381 | 0.361 | 0.168 | 0.484 | 0.419 | 0.499 | 0.368 | 0.209 | – | – | – | – | – |
| NCI-H1944 | 0.581 | 0.565 | 0.394 | 0.286 | 0.16 | 0.225 | 0.212 | 0.222 | 0.214 | 0.137 | 0.481 | 0.695 | 0.492 | 0.551 | 0.494 | – | – | – | – | – |
| NCI-H2009 | 0.751 | 0.699 | 0.712 | 0.218 | 0.121 | 0.291 | 0.254 | 0.244 | 0.0687 | 0.0717 | – | – | – | – | – | 1.04 | 0.54 | 1.11 | 0.423 | 0.15 |
| NCI-H2023 | 0.586 | 0.781 | 0.319 | 0.0637 | 0.0403 | 0.59 | 0.556 | 0.558 | 0.124 | 0.0683 | – | – | – | – | – | 1.01 | 1.12 | 0.91 | 0.0954 | 0.0652 |
| NCI-H2170 | 0.867 | 0.921 | 0.65 | 0.211 | 0.153 | 0.546 | 0.378 | 0.502 | 0.16 | 0.144 | 0.851 | 0.844 | 0.801 | 0.831 | 0.743 | – | – | – | – | – |
| NCI-H2228 | 0.778 | 0.647 | 0.328 | 0.0662 | 0.0606 | 0.475 | 0.464 | 0.328 | 0.0587 | 0.0925 | – | – | – | – | – | 0.96 | 0.917 | 0.74 | 0.0986 | 0.0661 |
| NCI-H2342 | 0.685 | 0.765 | 0.698 | 0.722 | 0.312 | 0.286 | 0.306 | 0.322 | 0.334 | 0.349 | 0.614 | 0.392 | 0.51 | 0.363 | 0.389 | – | – | – | – | – |
| SK-LU-1 | 0.721 | 0.805 | 0.672 | 0.323 | 0.107 | 0.17 | 0.202 | 0.214 | 0.0951 | 0.118 | – | – | – | – | – | 1.1 | 1.28 | 1.01 | 0.429 | 0.195 |
| SK-MES-1 | 1.09 | 1.25 | 0.985 | 0.191 | 0.165 | 0.375 | 0.351 | 0.35 | 0.124 | 0.125 | – | – | – | – | – | – | – | – | – | – |
| SW 900 | 0.388 | 0.623 | 0.535 | 0.211 | 0.0757 | 0.74 | 0.507 | 0.167 | 0.107 | 0.116 | 0.588 | 0.489 | 0.671 | 0.46 | 0.519 | – | – | – | – | – |
| SW 1573 | 0.703 | 0.751 | 0.572 | 0.156 | 0.102 | 0.488 | 0.867 | 0.24 | 0.0568 | 0.052 | – | – | – | – | – | 1.13 | 1.02 | 1.02 | 0.348 | 0.1 |
| UMC-11 | 0.371 | 0.363 | 0.201 | 0.117 | 0.0745 | 0.389 | 0.491 | 0.439 | 0.278 | 0.171 | – | – | – | – | – | 0.718 | 0.726 | 0.636 | 0.12 | 0.08 |
